Reference: US9187784B2, “EphA4 is a disease modifier in motor neuron disease” (VIB VZW, priority 2011, dated 2015)
Marks after values point to notes of the source that are not given here.

Tested on: mutant SOD1-overexpressing fish
Assay: mutant SOD1-induced motor axonopathy in zebrafish embryos (percentage affected embryos, motor axon length)
Format: in vivo
From the text: FIG. 1: EphA4 knockdown rescues mutant SOD1-induced motor axonopathy. […] Abnormal branching is indicated with arrowhead. Y-axes show motor axon length of zebrafish embryos expressing wild-type SOD1 (black bar, Panels D-G) or mutant SOD1 (white bar, Panels D-G). Knockdown of RTK2 in SOD1A4V- (Panel D), SOD1G93A- (Panel E) and SOD1G37R- (Panel F) expressing fish was established by co-injection of increasing amounts of atg-RTK2 morpholino (shaded bars). RTK1 expression was inhibited in SOD1A4V-expressing fish by co-injection of atg-RTK1 morpholino (shaded bars, Panel G). Ctr-RTK2 and ctr-RTK1 were used as control. ANOVA and Bonferroni's multiple comparison tests were used for statistical analysis. Comparing axonal length in SOD1A4V fish injected with ctr-RTK2 (n=39) vs. different doses atg-RTK2: 3 ng (n=43, p=0.0059), 4.5 ng (n=37, p=0.0016, Panel D), SOD1G93A: ctr-RTK2 (n=60) vs. atg-RTK2: 1.5 ng (n=55, p=0.015), 3 ng (n=51, p=2.82×10-9), 4.5 ng (n=46, p=2.22×10-15, Panel E), SOD1G37R: ctr-RTK2 (n=37) vs. atg-RTK2: 3 ng (n=25, p=0.027), 4.5 ng (n=36, p=0.0018, Panel F) and SOD1A4V: ctr-RTK1 (n=49) vs. atg-RTK1: 1.5 ng (n=51, p=2.51×10-7), 3 ng (n=64, p=7.99×10-10), 4.5 ng (n=54, p<1×10-20, Panel G). Western blot of SOD1WT or SOD1A4V (1.76 ng) expressing zebrafish embryos (30 hpf), co-injected with either ctr-RTK1 or atg-RTK1 (4.5 ng). Sixty embryos were used per group with actin as the loading control (H). Immunostaining of rtk1 (green) in rhombomeres 3 and 5 and of ephrin-b2 (magenta) in rhombomere 4 in zebrafish embryos injected with either ctr-RTK1 or atg-RTK1 (4.5 ng). RTK1-depleted embryos show disorganized rhombomere boundaries (arrowhead, I, Scale bar 50 μm). Error bars are s.e.m.
FIG. 2: RTK2 knockdown protects motor axons against SOD1^A4V-induced injury. Effect of RTK2 knockdown, established by injection of splice-rtk2 morpholino, on the motor axon length of SOD1^A4V-expressing zebrafish embryos (30 hpf). SOD1^WT-expressing fish and a non-functional five-base pair-mismatch control morpholino (ctr-RTK2) were used as control (Panel A). ANOVA and Bonferroni's multiple comparison tests were used for statistical analysis: SOD1^A4V/ctr-RTK2 (n=56) vs. SOD1^A4V/spl-RTK2 (n=60, 1.79×10^−4). Spl-RTK2 was designed against the exon 2 splice site of the zebrafish RTK2 pre-mRNA and alternatively skipped out exon 2. RT-PCR on non-transgenic fish (lane 1), ctr-RTK2-injected fish (lane 2) and spl-RTK2-injected fish (lane 3) at 30 hpf. Functional RTK2 mRNA, containing exon 2, is indicated by the 818-bp product (upper band) while non-functional RTK2 mRNA, lacking exon 2 is indicated by the 156-bp product (lower band), 60 embryos each group (Panel B). Error bars are s.e.m.
FIG. 12: Pharmacological inhibition of EphA4 receptor signaling protects against mutant SOD1 pathology in vivo. Effect of treatment with Compound 1 (C1, 500 μM) on the motor axon length of zebrafish embryos (30 hpf). DMSO (1/250 dilution) was used as control (Panel A). ANOVA and Bonferroni's multiple comparison tests were used for statistical analysis: SOD1^A4V/C1 (n=68) vs. SOD1^A4V/DMSO (n=76, p=3.54×10^−5). Effect of KYL-peptide (3 mM) treatment of 60-day-old SOD1^G93A rats on disease onset (Panel B) and survival (Panel C). Artificial CSF (ACSF) was used as control. Average disease onset: 133 days (treated, n=21) versus 125 days (control, n=17, T-test p=0.044). Average survival: 148 days (treated, n=21) versus 139 days (controls, n=17, T-test p=0.041). Error bars are s.e.m.
Effect of RTK2 knockdown (established by injection of atg-RTK2 morpholino) on the percentage of affected wild-type SOD1 or mutant SOD1 (A4V, G93A, G37R) zebrafish embryos (30 hpf). Ctr-RTK2 morpholino was used as control. An embryo was considered as affected when it had more than 10% abnormally branched motor axons. Significance of mtSOD1/ctr-RTK2 (4.5 ng) vs. mtSOD1/atg-RTK2 (4.5 ng) was determined by Mann-Whitney test, * p=0.0075, ° p=0.039 and # p=0.0052. […]

Compound	% affected fish (Table 4, SOD1A4V fish, morpholino 1.5 ng)	% affected fish (Table 4, SOD1A4V fish, morpholino 3 ng)	% affected fish (Table 4, SOD1A4V fish, morpholino 4.5 ng)	% affected fish (Table 4, SOD1WT fish, morpholino 4.5 ng)	% affected fish (Table 4, SOD1A4V fish, C1 500 μM in the water)	% affected fish (Table 4, SOD1WT fish, C1 500 μM in the water)
5′-CTGTGAACACAAGCGCAGCCATTGG-′3 (all phosphorodiamidate morpholino (PMO)) [atg-RTK1]	38 (24) %	22 (33) %	8* (26) %	14 (14) %	–	–
Cc1ccc(C)n1-c1ccc(C(=O)O)c(O)c1 [Compound C1]	–	–	–	–	11° (26) %	15 (32) %
